# Measured values as given in US20240317827A1, “LINEAR PEPTIDES INHIBITING CK2-MEDIATED PHOSPHORYLATION AND COMPOSITIONS COMPRISING SAME” (CENTRO DE INGENIERÍA GENÉTICA Y BIOTECNOLOGÍA, priority 2021, published 2024).
# Read-outs that look alike come from different tables or passages of the source. Where a SMILES comes first, the peptide text is derived from it. [ ]: non-standard residue; d: D form. βAla = NCCC(=O)O
# Test system: NCI-H125 cell line (non-small cell lung cancer)
# Assay: cell proliferation assay, NCI-H125 line
# Assay type: cell-based
# Protocol: The evaluation of the antiproliferative activity of polypeptides F11P13-F11P21 (SEQ ID NO: 12-SEQ ID NO: 20) was performed on the NCI-H125 cell line. […] The antiproliferative effect of the CIGB-300 peptide has been widely characterized in this line (Cirigliano S. M., et al., 2017, Cancer Cell International, 17, 42), therefore, it was selected as a positive control. Tat peptide was used as a negative control. The polypeptides were evaluated at the concentrations of 25, 50, 100 and 200 μM. The cell proliferation assay was performed by a previously described procedure (Perera Y., et al., 2012, J. Pept. Sci, 18 (4):215-23).
# The 24 polypeptides identified as SEQ ID NO: 21-SEQ ID NO: 44 maintained the ability to inhibit the phosphorylation of the E7 protein of HPV-16, mediated by CK2, since phosphorylation inhibition values between 60-85% were obtained. […] Evaluation of the antiproliferative activity of synthetic polypeptides generated by positional scanning of Trp (SEQ ID NO: 21-SEQ ID NO: 44) was performed on the NCI-H125 cell line. The test was performed by the procedure previously described. (Perera Y., et al., 2012, J. Pept. Sci, 18 (4): 215-23). Precursor polypeptides (F11P19, F11P20, F11P21) and peptide CIGB-300 were included as positive controls. The polypeptides were evaluated at the concentrations of 12.5; 25; fifty; 100 and 200 μM.
# The evaluation of the antiproliferative activity of synthetic polypeptides A15P35, A15P36 and A15P37 (SEQ ID NO: 46-SEQ ID NO: 48) was performed on the NCI-H125, AsPC-1, PanC-1 (pancreatic carcinoma) and OCI-AML3 (acute myeloid leukemia-3) cell lines. The test was carried out according to the procedure previously described (Perera Y, et al., 2012, J. Pept. Sci, 18 (4):215-23). […] The polypeptides A15P35, A15P36 and A15P37 were able to produce a dose-dependent effect on the proliferation of NCI-H125 cells.
# Antiproliferative assays were performed on the NCI-H125, Hep2C (laryngeal carcinoma) cell lines, and on two bladder cancer lines (MGH-U3 and MGH-U4). The test was carried out according to the procedure previously described (Perera Y., et al, 2012, Pept. Sci, 18 (4):215-23).
# [1] = NCI-H125, Table 5, read-out: IC50
SMILES,IC50 [1],"IC50 (NCI-H125, read-out: IC50 (dose-effect curves))"
"N=C(N)NCCC[C@H](NC(=O)CN)C(=O)N[C@@H](CCCCN)C(=O)N[C@@H](CCCCN)C(=O)N[C@@H](CCCNC(=N)N)C(=O)N[C@@H](CCCNC(=N)N)C(=O)N[C@@H](CCC(N)=O)C(=O)N[C@@H](CCCNC(=N)N)C(=O)N[C@@H](CCCNC(=N)N)C(=O)N[C@@H](CCCNC(=N)N)C(=O)N1CCC[C@H]1C(=O)N1CCC[C@H]1C(=O)N[C@@H](CCC(N)=O)C(=O)NCCC(=O)N[C@@H](Cc1c[nH]c2ccccc12)C(=O)N[C@@H](Cc1ccc(O)cc1)C(=O)N[C@@H](CCCNC(=N)N)C(=O)N[C@@H](Cc1ccc(O)cc1)C(=O)N[C@@H](CCCCN)C(=O)N[C@@H](CCCNC(=N)N)C(=O)N[C@@H](CC(=O)O)C(=O)N1CCC[C@H]1C(N)=O [A14P27, GRKKRRQRRRPPQ-βA-WYRYKRDP] (H-GRKKRRQRRRPPQ[βAla]WYRYKRDP-NH2; N-terminus and C-terminus assumed)",165 µM,
"N=C(N)NCCC[C@H](NC(=O)CN)C(=O)N[C@@H](CCCCN)C(=O)N[C@@H](CCCCN)C(=O)N[C@@H](CCCNC(=N)N)C(=O)N[C@@H](CCCNC(=N)N)C(=O)N[C@@H](CCC(N)=O)C(=O)N[C@@H](CCCNC(=N)N)C(=O)N[C@@H](CCCNC(=N)N)C(=O)N[C@@H](CCCNC(=N)N)C(=O)N1CCC[C@H]1C(=O)N1CCC[C@H]1C(=O)N[C@@H](CCC(N)=O)C(=O)NCCC(=O)N[C@@H](CCCNC(=N)N)C(=O)N[C@@H](CCCCN)C(=O)N[C@@H](CCCNC(=N)N)C(=O)N[C@@H](Cc1c[nH]c2ccccc12)C(=O)N[C@@H](CCCNC(=N)N)C(=O)N[C@@H](Cc1ccc(O)cc1)C(=O)N[C@@H](CC(=O)O)C(=O)N1CCC[C@H]1C(N)=O [A14P43, GRKKRRQRRRPPQ-βA-RKRWRYDP] (H-GRKKRRQRRRPPQ[βAla]RKRWRYDP-NH2; N-terminus and C-terminus assumed)",107 µM,
"N=C(N)NCCC[C@H](NC(=O)CN)C(=O)N[C@@H](CCCCN)C(=O)N[C@@H](CCCCN)C(=O)N[C@@H](CCCNC(=N)N)C(=O)N[C@@H](CCCNC(=N)N)C(=O)N[C@@H](CCC(N)=O)C(=O)N[C@@H](CCCNC(=N)N)C(=O)N[C@@H](CCCNC(=N)N)C(=O)N[C@@H](CCCNC(=N)N)C(=O)N1CCC[C@H]1C(=O)N1CCC[C@H]1C(=O)N[C@@H](CCC(N)=O)C(=O)NCCC(=O)NCC(=O)N[C@@H](Cc1ccc(O)cc1)C(=O)N[C@@H](CCCNC(=N)N)C(=O)N[C@@H](Cc1ccc(O)cc1)C(=O)N[C@@H](CCCCN)C(=O)N[C@@H](CCCNC(=N)N)C(=O)N[C@@H](Cc1c[nH]c2ccccc12)C(=O)N1CCC[C@H]1C(N)=O [A14P33, GRKKRRQRRRPPQ-βA-GYRYKRWP] (H-GRKKRRQRRRPPQ[βAla]GYRYKRWP-NH2; N-terminus and C-terminus assumed)",124 µM,
"CC(C)C[C@H](NC(=O)[C@H](CCCNC(=N)N)NC(=O)[C@H](CCCNC(=N)N)NC(=O)[C@H](CCCCN)NC(=O)[C@H](CCCCN)NC(=O)[C@@H](NC(=O)CCNC(=O)[C@H](CCC(N)=O)NC(=O)[C@@H]1CCCN1C(=O)[C@@H]1CCCN1C(=O)[C@H](CCCNC(=N)N)NC(=O)[C@H](CCCNC(=N)N)NC(=O)[C@H](CCCNC(=N)N)NC(=O)[C@H](CCC(N)=O)NC(=O)[C@H](CCCNC(=N)N)NC(=O)[C@H](CCCNC(=N)N)NC(=O)[C@H](CCCCN)NC(=O)[C@H](CCCCN)NC(=O)[C@H](CCCNC(=N)N)NC(=O)CN)C(C)C)C(=O)N[C@@H](CC(=O)O)C(=O)N1CCC[C@H]1C(N)=O [F11P21, GRKKRRQRRRPPQ-βA-VKKRRLDP] (H-GRKKRRQRRRPPQ[βAla]VKKRRLDP-NH2; N-terminus and C-terminus assumed)",,668 µM
